Entries after “also recorded” stand apart in the source; their conditions may differ. Read-outs that look alike come from different tables or passages of the source.
Tests used:
[1] = system: HER2-positive breast cancer cell lines; parameters: method as in Cardoso et al, 2006; conditions: HER2-positive cells, four cell lines ref Cardoso et al, 2006; cited from earlier work
[2] = Plasma pharmacokinetics of bortezomib and docetaxel given in combination; type: in vivo, patients; conditions: for AUC(0-t) / AUC(0-inf) / clearance / half-life / Vd / Cmax: human, plasma, intravenous; for AUC(0-t): read-out: AUC0–t, mean (%CV); for AUC(0-inf): read-out: AUC0–∞∞, mean (%CV); for clearance: read-out: CL, mean (%CV) (converted); for Cmax: read-out: Cmax, mean (%CV)
Text: (§1) In patients participating in pharmacokinetic analysis, blood samples were taken on day 1, cycle 1, to determine the plasma concentration time profile of docetaxel and bortezomib. Samples were collected immediately before docetaxel infusion and bortezomib injection and at prespecified intervals on day 1. Samples were also taken for bortezomib pharmacokinetic analysis on day 11 of cycle 1. Whole-blood samples were taken for pharmacodynamic analysis using 20S proteasome inhibition assay ([Lightcap et al, 2000]) immediately before and 1 h after bortezomib dosing on days 1 and 11 of cycles 1 and 2, and on days 2 and 12 of cycle 1, in a subset of patients participating in pharmacokinetic analysis.

20S proteasome = 20S proteasome (Homo sapiens, UniProt P28074); experiment: 20S proteasome inhibition assay in whole blood; type: in vivo, patients
Text: as §1

[3] = system: alpha-1 acid glycoprotein (AAG), albumin, and lipoproteins; parameters: method as in Aventis Pharmaceuticals Inc, 2005; conditions: in vitro ref Aventis Pharmaceuticals Inc, 2005; cited from earlier work
metastatic breast cancer = conditions: single agent, anthracycline-pretreated metastatic breast cancer ref Jones et al, 2005; cited from earlier work
[4] = 1 mg, bortezomib 1.0 mg m^−2 (n=5), day 1, with docetaxel
[5] = 1 mg, bortezomib 1.0 mg m^−2 (n=5), day 11
[6] = 1.3 mg, bortezomib 1.3 mg m^−2 (n=3), day 1, with docetaxel
[7] = 1.3 mg, bortezomib 1.3 mg m^−2 (n=3), day 11
[8] = 1.5 mg, bortezomib 1.5 mg m^−2 (n=6), day 11
[9] = 1.5 mg, bortezomib 1.5 mg m^−2 (n=8), day 1, with docetaxel
[10] = 75 mg, docetaxel 75 mg m^−2 (n=7), day 1, with bortezomib
[11] = 100 mg, docetaxel 100 mg m^−2 (n=6), day 1, with bortezomib

20S proteasome, sequence (P28074 60-263): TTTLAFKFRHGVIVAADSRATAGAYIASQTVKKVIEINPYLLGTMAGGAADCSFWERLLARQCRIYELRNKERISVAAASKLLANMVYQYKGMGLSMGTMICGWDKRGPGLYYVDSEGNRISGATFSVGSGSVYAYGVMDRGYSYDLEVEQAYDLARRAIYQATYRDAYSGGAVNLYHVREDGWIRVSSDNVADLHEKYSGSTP

Compound: CC(C)C[C@H](NC(=O)[C@H](Cc1ccccc1)NC(=O)c1cnccn1)B(O)O [Bortezomib]
- Effect on the effect of trastuzumab [1]: acts synergistically
- C0, mean (%CV) ([2]; bortezomib 1.0 mg m^−2 (n=5), day 1, with docetaxel): 208 (34) ng ml^−1
- C0, mean (%CV) ([2]; bortezomib 1.0 mg m^−2 (n=5), day 11): 552 (148) ng ml^−1
- C0, mean (%CV) ([2]; bortezomib 1.3 mg m^−2 (n=3), day 1, with docetaxel): 137 (54) ng ml^−1
- C0, mean (%CV) ([2]; bortezomib 1.3 mg m^−2 (n=3), day 11): 237 (59) ng ml^−1
- C0, mean (%CV) ([2]; bortezomib 1.5 mg m^−2 (n=6), day 11): 153 (41) ng ml^−1
- C0, mean (%CV) ([2]; bortezomib 1.5 mg m^−2 (n=8), day 1, with docetaxel): 268 (71) ng ml^−1
- AUC(0-t) [2, 4]: 43 ng·h/mL
- AUC(0-inf) [2, 4]: 54.6 ng·h/mL
- clearance [2, 4]: 562 mL/min
- half-life ([2]; 1 mg, bortezomib 1.0 mg m^−2 (n=5), day 1, with docetaxel, read-out: T½,z, mean (%CV) (converted)): 9.15 h
- Vd ([2]; 1 mg, bortezomib 1.0 mg m^−2 (n=5), day 1, with docetaxel, read-out: Vss, mean (%CV)): 222 L
- Vd ([2]; 1 mg, bortezomib 1.0 mg m^−2 (n=5), day 1, with docetaxel, read-out: Vz, mean (%CV)): 408 L
- AUC(0-t) [2, 5]: 112 ng·h/mL
- AUC(0-inf) [2, 5]: 133 ng·h/mL
- clearance [2, 5]: 225 mL/min
- half-life ([2]; 1 mg, bortezomib 1.0 mg m^−2 (n=5), day 11, read-out: T½,z, mean (%CV) (converted)): 12.2 h
- Vd ([2]; 1 mg, bortezomib 1.0 mg m^−2 (n=5), day 11, read-out: Vss, mean (%CV)): 151 L
- Vd ([2]; 1 mg, bortezomib 1.0 mg m^−2 (n=5), day 11, read-out: Vz, mean (%CV)): 237 L
- half-life ([2]; 1 mg, bortezomib 1.0 mg m^−2, day 1, patients with measurable plasma concentrations at 24 h post-dose (n=2), read-out: T½,z 24-h, mean (converted)): 15.1 h
- half-life ([2]; 1 mg, bortezomib 1.0 mg m^−2, day 11, patients with measurable plasma concentrations at 24 h post-dose (n=4), read-out: T½,z 24-h, mean (converted)): 14.3 h
- AUC(0-t) [2, 6]: 35.5 ng·h/mL
- AUC(0-inf) [2, 6]: 49 ng·h/mL
- clearance [2, 6]: 850 mL/min
- half-life ([2]; 1.3 mg, bortezomib 1.3 mg m^−2 (n=3), day 1, with docetaxel, read-out: T½,z, mean (%CV) (converted)): 14.2 h
- Vd ([2]; 1.3 mg, bortezomib 1.3 mg m^−2 (n=3), day 1, with docetaxel, read-out: Vss, mean (%CV)): 596 L
- Vd ([2]; 1.3 mg, bortezomib 1.3 mg m^−2 (n=3), day 1, with docetaxel, read-out: Vz, mean (%CV)): 924 L
- AUC(0-t) [2, 7]: 90.5 ng·h/mL
- AUC(0-inf) [2, 7]: 111 ng·h/mL
- clearance [2, 7]: 350 mL/min
- half-life ([2]; 1.3 mg, bortezomib 1.3 mg m^−2 (n=3), day 11, read-out: T½,z, mean (%CV) (converted)): 12.2 h
- Vd ([2]; 1.3 mg, bortezomib 1.3 mg m^−2 (n=3), day 11, read-out: Vss, mean (%CV)): 237 L
- Vd ([2]; 1.3 mg, bortezomib 1.3 mg m^−2 (n=3), day 11, read-out: Vz, mean (%CV)): 374 L
- half-life ([2]; 1.3 mg, bortezomib 1.3 mg m^−2, day 1, patients with measurable plasma concentrations at 24 h post-dose (n=2), read-out: T½,z 24-h, mean (converted)): 18.1 h
- half-life ([2]; 1.3 mg, bortezomib 1.3 mg m^−2, day 11, patients with measurable plasma concentrations at 24 h post-dose (n=2), read-out: T½,z 24-h, mean (converted)): 17.1 h
- AUC(0-t) [2, 8]: 103 ng·h/mL
- AUC(0-inf) [2, 8]: 161 ng·h/mL
- clearance [2, 8]: 267 mL/min
- half-life ([2]; 1.5 mg, bortezomib 1.5 mg m^−2 (n=6), day 11, read-out: T½,z, mean (%CV) (converted)): 23.6 h
- Vd ([2]; 1.5 mg, bortezomib 1.5 mg m^−2 (n=6), day 11, read-out: Vss, mean (%CV)): 391 L
- Vd ([2]; 1.5 mg, bortezomib 1.5 mg m^−2 (n=6), day 11, read-out: Vz, mean (%CV)): 538 L
- AUC(0-t) [2, 9]: 69 ng·h/mL
- AUC(0-inf) [2, 9]: 85.3 ng·h/mL
- clearance [2, 9]: 615 mL/min
- half-life ([2]; 1.5 mg, bortezomib 1.5 mg m^−2 (n=8), day 1, with docetaxel, read-out: T½,z, mean (%CV) (converted)): 6.9 h
- Vd ([2]; 1.5 mg, bortezomib 1.5 mg m^−2 (n=8), day 1, with docetaxel, read-out: Vss, mean (%CV)): 209 L
- Vd ([2]; 1.5 mg, bortezomib 1.5 mg m^−2 (n=8), day 1, with docetaxel, read-out: Vz, mean (%CV)): 282 L
- half-life ([2]; 1.5 mg, bortezomib 1.5 mg m^−2, day 1, patients with measurable plasma concentrations at 24 h post-dose (n=2), read-out: T½,z 24-h, mean (converted)): 17.8 h
- half-life ([2]; 1.5 mg, bortezomib 1.5 mg m^−2, day 11, patients with measurable plasma concentrations at 24 h post-dose, read-out: T½,z 24-h, mean (converted)): 23.6 h
- half-life ([2]; following the first dose, patients with measurable plasma concentrations at 24 h post-dose, read-out: Terminal half-lives, mean values across dose levels): 15 to 18 h
- Percent 20S proteasome inhibition, cycle 2 versus cycle 1 (20S proteasome; all dose groups): greater in cycle 2 than cycle 1
- Inhibition of 20S proteasome activity (20S proteasome; whole blood, 1 h post-dose): 46.14–88.80%
- Inhibition of 20S proteasome activity (20S proteasome; whole blood, immediately prior to the dose on day 11): 10.93–51.18%

Compound: CC(=O)O[C@@]12CO[C@@H]1C[C@H](O)[C@@]1(C)C(=O)[C@H](O)C3=C(C)[C@@H](OC(=O)[C@H](O)[C@@H](NC(=O)OC(C)(C)C)c4ccccc4)C[C@@](O)([C@@H](OC(=O)c4ccccc4)[C@H]21)C3(C)C [Docetaxel]
- AUC(0-t) [2, 10]: 1700 ng·h/mL
- AUC(0-inf) [2, 10]: 1850 ng·h/mL
- clearance [2, 10]: 1420 mL/min
- half-life ([2]; 75 mg, docetaxel 75 mg m^−2 (n=7), day 1, with bortezomib, read-out: T½,z, mean (%CV) (converted)): 10.4 h
- Vd ([2]; 75 mg, docetaxel 75 mg m^−2 (n=7), day 1, with bortezomib, read-out: Vss, mean (%CV)): 180 L
- Vd ([2]; 75 mg, docetaxel 75 mg m^−2 (n=7), day 1, with bortezomib, read-out: Vz, mean (%CV)): 920 L
- half-life ([2]; 75 mg, docetaxel 75 mg m^−2, day 1, patients with measurable plasma concentrations at 24 h post-dose (n=3), read-out: T½,z 24-h, mean (converted)): 17.6 h
- AUC(0-t) [2, 11]: 2550 ng·h/mL
- AUC(0-inf) [2, 11]: 2730 ng·h/mL
- clearance [2, 11]: 1160 mL/min
- half-life ([2]; 100 mg, docetaxel 100 mg m^−2 (n=6), day 1, with bortezomib, read-out: T½,z, mean (%CV) (converted)): 15 h
- Vd ([2]; 100 mg, docetaxel 100 mg m^−2 (n=6), day 1, with bortezomib, read-out: Vss, mean (%CV)): 372 L
- Vd ([2]; 100 mg, docetaxel 100 mg m^−2 (n=6), day 1, with bortezomib, read-out: Vz, mean (%CV)): 1510 L
- half-life ([2]; 100 mg, docetaxel 100 mg m^−2, day 1, patients with measurable plasma concentrations at 24 h post-dose (n=5), read-out: T½,z 24-h, mean (converted)): 17.4 h
- Cmax ([2]; docetaxel 75 mg m^−2 (n=7), day 1, with bortezomib): 1620 ng/mL
- Cmax ([2]; docetaxel 100 mg m^−2 (n=6), day 1, with bortezomib): 2520 ng/mL
- Plasma protein binding [3]: extensively plasma protein-bound
- Effect of coadministered docetaxel on 20S proteasome inhibition by bortezomib (20S proteasome; whole blood): appeared not to affect; also recorded: did not appear to affect
- Median TTP (metastatic breast cancer): 5.7 months
- Response rate (metastatic breast cancer): 32%

Compound: CC(=O)O[C@H]1C(=O)[C@@]2(C)[C@H]([C@H](OC(=O)c3ccccc3)[C@]3(O)C[C@H](OC(=O)[C@H](O)[C@@H](NC(=O)c4ccccc4)c4ccccc4)C(C)=C1C3(C)C)[C@]1(OC(C)=O)CO[C@@H]1C[C@@H]2O [paclitaxel]
- Median TTP (metastatic breast cancer): 3.6 months
- Response rate (metastatic breast cancer): 25%
